Columns and labels:
[1] = tested on: r(G4C2)66-No ATG-GFP mRNA; assay: RNA levels in transfected HEK293T cells by RT-qPCR; format: cell-based, human
Protocol: Measuring RNA Levels in HEK Cells. HEK293T cells were seeded at 2×10^6 in 100 mm dish and incubated at 37° C. overnight. Cells were transfected with 2.5 μg of the (G4C2)66-No ATG-GFP plasmid with Lipofectamine 3000 (Life Technologies) per the manufacturer's protocols. After 5 h, the cells were collected and split into 24-well plate with 5×10^4 cells per well. After 2 h, the compounds were added and incubated for another 24 h.
Total RNA was extracted using a Quick-RNA Miniprep Kit (Zymo Research) per the manufacturer's protocol. Approximately 1 μg of total RNA, as determined by Nanodrop, was used for reverse transcription using qScript Kit (Quantbio) per the manufacturer's protocol. RT-qPCR was performed on a 7900HT Fast Real Time PCR System (Applied Biosystem) using Power SYBR Green Master Mix (Applied Biosystems). Expression levels of mRNAs were normalized to β-actin.
Rnase L Knockdown. HEK293T cells were seeded in growth medium in a 100 mm dish and incubated at 37° C. until ˜80% confluent. Cells were transfected with 2.5 µg (G4C2)66-No-ATG-GFP for 5 h with Lipofectamine 3000 (Life Technologies) per the manufacturer's recommended protocol. Following transfection, the cells were plated in 6-well plates and incubated at 37° C. until ˜80% confluent. Compounds were added in growth medium and incubated for 24 h. Following compound treatment, the siRNA of interest (Table 3) were transfected with RNAiMax (Life Technologies) at a final concentration of 50 nM for 24 h per the manufacturer's recommended protocol. Total RNA was extracted using a Quick-RNA Miniprep Kit (Zymo Research) per the manufacturer's protocol. Intron 1 abundance was assessed by RT-qPCR as described above.

Poly(GP) = Poly(GP) by electrochemiluminescent immunoassay in patient-derived LCLs; format: cell-based, human
Protocol: Measuring Poly(GP) Levels by Electrochemiluminescence. LCLs were seeded in T-25 flash at 400,000 cells/mL in 5 mL of growth medium. After overnight incubation, the cells were treated with compound or ASO for 4 days at 37° C. After the treatment period, the cells were pelleted, and total protein was extracted by incubating with CoIP2 Buffer (50 mM Tris-HCL, pH 7.4, 300 mM NaCl, 5 mM EDTA, 1% (v/v) Triton-X 100, 2% (w/v) sodium dodecyl sulfate, and 0.01% (v/v) protease and phosphatase inhibitors) on ice for 5 min and then sonication (3 s intervals at 35% power for ˜40 s). Detergent was then removed using Pierce™ Detergent Removal Spin Columns following manufacturer's protocol. Protein concentration was measured by Pierce™ BCA Protein Assay Kit.
Levels of poly(GP) were measured using Meso Scale Discovery MSD Gold 96-well Streptavidin SECTOR plates. Both capture and detection antibodies were generated using an anti-poly(GP) antibody kindly provided by the Target ALS Foundation. To serve as the capture antibody, the poly(GP) antibody was conjugated to biotin using EZ-Link™ Sulfo-NHS-LC-Biotin (Thermo Fisher) as per the manufacturer's protocol. To serve as the detection antibody, the poly(GP) antibody was sulfo-tagged using MSD GOLD SULFO-TAG NHS-Ester (Meso Scale Discovery) as per the manufacturer's protocol. The conjugated antibodies were desalted with 40K Zeba™ Spin Desalting Columns (Thermo Fisher Scientific), and their concentrations were determined by Pierce™ BCA Protein Assay Kit.
Briefly, the plates were incubated with 2 μg/ml of anti-poly(GP)-biotin antibody at 4° C. overnight. The wells were then washed three times with 1×TBST [1×Tris-buffered saline (TBS) containing 0.1% (v/v) Tween-20] and blocked with 3% BSA in 1×TBST for 1 h at room temperature (with shaking). The blocking solution was removed, and the wells were washed 3 times with 150 μL of 1×TBST. […] After washing with 150 μL of 1×TBST three times, 1×MSD GOLD Read Buffer was added to each well, and electrochemiluminescence was measured using a SECTOR Imager (MSD). […]

r(G4C2)8 = assay: RIBOTAC cleavage of r(G4C2)8 in vitro, FRET assay with RNase L; format: biochemical; details: r(G4C2)8 labeled Cy5/Cy3
Protocol: RIBOTAC Cleavage of […] in vitro: Gel Analysis. A model of r(G4C2)^exp, r(G4C2)8 was radioactively labeled at its 5′ end and purified on a denaturing 15% polyacrylamide gel as previously described (12, 57). Then, 25 nM of labeled RNA was folded by heating at 95° C. for 5 min in 1× Rnase L buffer (25 mM Tris-HCl, pH7.4, and 100 mM NaCl) and allowed to slowly cool to room temperature. To the folded RNA was added 2-Mercaptoethanol (7 mM final concentration), ATP (50 µM final concentration), and MgCl2 (10 mM final concentration). Compound was added, and the samples were incubated for 15 min at room temperature. Next, Rnase L was added to a final concentration of 25 or 50 nM, and the samples were incubated at 37° C. (1 h or overnight). Fragments were separated on a denaturing 15% polyacrylamide gel, imaged by phosphorimaging with a Typhoon FLA 9500, and quantified with BioRad's QuantityOne software. All studies were performed in duplicate.
RIBOTAC Cleavage of r(G4C2)8 in vitro: FRET Assay. A FRET assay was developed to monitor RIBOTAC-induced cleavage of r(G4C2)8 by Rnase L. This assay uses r(G4C2)8 labeled with Cy5 and Cy3, at the 5′ and 3′ end, respectively (Dharmacon). […] Fluorescence was measured on a Molecular Devices SpectraMax M5 plate reader (Cy3, Ex.: 554 nm; Em.: 568 nm; Cy5, Ex.: 649 nm, Em.: 666 nm; FRET, Ex.: 554 nm, Em.: 666 nm). […]

SMILES | r(G4C2)66 levels ([1]; HEK293T) | Poly(GP) expression (Poly(GP); 5, 50 and 500 nM for 4 days) | reduction of r(G4C2)exp-containing mRNA ([1]; 500 nM compound) [%] | ability to reduce r(G4C2)exp levels upon knock down of Rnase L by siRNA ([1]; RNase L siRNA versus control siRNA) | reduction of Poly(GP) levels (Poly(GP); 500 nM) [%] | increase in potency over parent compound 3 (Poly(GP); Poly(GP) in LCLs) [fold] | FRET signal upon addition of compound and Rnase L (r(G4C2)8)
Cc1c2ccncc2c(C)c2c1[nH]c1ccc(OCCOCCOCCNCCOCCOCCOc3ccc4[nH]c5c(C)c6ccncc6c(C)c5c4c3)cc12 [Compound 3] | without affecting | dose-dependent decrease |  |  |  |  | 
CCOC(=O)C1=C(Nc2ccccc2)S/C(=C\c2ccc(OCCOCCOCCOCCNC(=O)CCC(=O)N(CCOCCOCCOc3ccc4[nH]c5c(C)c6ccncc6c(C)c5c4c3)CCOCCOCCOc3ccc4[nH]c5c(C)c6ccncc6c(C)c5c4c3)c(O)c2)C1=O [Compound 7] |  |  | 46±2 | ablated | 71±11 | 5 | dose dependently decreased

— patent US20230381170A1, “METHOD FOR TREATING ALS/FTD THROUGH DEGRADATION OF RNA REPEAT EXPANSION” (University of Florida Research Foundation, Incorporated, priority 2020, published 2023)
